Measurements: patent US9481648B2, “Kinase inhibitors” (Respivert Limited, priority 2013, dated 2016)
pIC50: −log10 of the molar value. Where two headings read alike, the source gives them in different places. Each block holds one compound with its values, some of them ahead of it.

Key:
[1] = molecular target: GSK 3α (Homo sapiens (Human), UniProt P49840); test: GSK 3α enzyme inhibition (FRET, Z-LYTE; Method 2); assay type: biochemical; details: read-out: IC50 Values for Enzyme Inhibition GSK3α
In short: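 Phosphorylation was taken from the donor (coumarin) to acceptor (fluorescein) emission ratio after 1 h protease development, which cleaves only unphosphorylated peptide. Before that, peptide (8 μM stock) plus ATP (40 μM stock) reacted 1 h. This followed a 105 min RT preincubation of GSK3-α with compound stocks of 10–0.01 μg/mL.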

[2] = system: PBMCs; test: LPS-induced TNFα/IL-8 release in PBMC cells (assay b); assay type: cell-based, human; details: LPS-stimulated, read-out: IC50 Values for Inhibition of Cytokine Release PBMCs IL-8
Protocol: Peripheral blood mononuclear cells (PBMCs) from healthy subjects are separated from whole blood using a density gradient (Lymphoprep, Axis-Shield Healthcare). The PBMCs are seeded in 96 well plates and treated with compounds at the desired concentration for 2 hours before addition of 1 ng/mL LPS (Escherichia Coli 0111:B4 from Sigma Aldrich) for 24 hours under normal tissue culture conditions (37° C., 5% CO2). The supernatant is harvested for determination of IL-8 and TNFα concentrations by sandwich ELISA (Duo-set, R&D systems) and read on the fluorescence microplate reader (Varioskan® Flash, ThermoFisher Scientific).

[3] = Hydrolytic stability study; assay type: physicochemical; details: for % Parent Remaining: DMSO:water (3:1), 1 mg/mL
Protocol: Chemical stability of compounds of the invention was assessed in a mixture of DMSO and water (3:1) at a test compound concentration of 1 mg/mL
Sample Preparation • A 1.0 mg sample of test compound was dissolved in 750 μL of DMSO. Water (250 μL) was added slowly, ensuring no precipitation occurred.
Recording Stability • A 50 μL aliquot of the test solution was removed and analysed in duplicate by 5 μL HPLC injections. The peak area for the test compound was recorded following manual integration of the corresponding UV trace. • The test solution was heated to 60° C., with stirring, and 50 μL aliquots removed for HPLC analysis at 5 and 24 h timepoints.

[4] = molecular target: CYP2C9 (Homo sapiens (Human), UniProt P11712); test: CYP2C9 inhibition study; assay type: in vitro ADME; details: 5 μM (precipitation at 15 μM)
Protocol: (§1) Assessment of certain in vitro ADME (absorption, distribution, metabolism, and excretion) parameters for certain compounds of the invention was conducted by BioFocus (Saffron Walden, UK).

[5] = molecular target: CYP3A4 (Homo sapiens (Human), UniProt P08684); test: CYP3A4 inhibition study; assay type: in vitro ADME; details: for inhibition at 15 µM: human, read-out: 15 μM % Inh
Protocol: as §1

[6] = system: β-catenin in d-U937 cells; test: Accumulation of β catenin in d-U937 cells (assay m); assay type: cell-based, human
In short: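 U937 cells were differentiated with PMA (100 ng/mL) for 48–72 hr, then treated with compound or vehicle for 18 hr. After formaldehyde fixation, β-catenin was detected with a primary antibody and an HRP secondary using TMB (OD450–655). Signal was normalised to crystal violet cell staining (OD595).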

[7] = molecular target: Syk (Homo sapiens (Human), UniProt P43405); test: Syk enzyme inhibition (FRET, Z-LYTE); assay type: biochemical
In short: (§2)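 Syk or c-Src enzyme (3000 or 2000 ng/mL solutions) was preincubated 2 h at RT with compound solutions at 1, 0.1, 0.01 or 0.001 µg/mL. Z-LYTE FRET peptide (8 µM solution) and ATP (800 µM solution for c-Src, 60 µM for Syk) were then added for 1 h, followed by protease development for 1 h. Phosphorylation was read as the coumarin/fluorescein emission ratio.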

[8] = molecular target: c-Src (Homo sapiens (Human), UniProt P12931); test: c-Src enzyme inhibition (FRET, Z-LYTE); assay type: biochemical
In short: as §2

[9] = molecular target: p38 MAPKα (MAPK14) (Homo sapiens (Human), UniProt Q16539); test: p38 MAPKα enzyme inhibition (FRET, Z-LYTE; Method 2); assay type: biochemical
[10] = system: TNBS-induced colitis in BDF1 mice; test: TNBS-induced colitis in mice (in vivo iv); set-up: species or system mouse
Protocol: Non-fasted, 10-12 week old, male BDF1 mice are dosed by oral gavage twice daily with either vehicle (5 mL/kg), reference item (Budesonide 2.5 mg/kg) or test compound (1 or 5 mg/kg) one day before (Day −1) stimulation of the inflammatory response by treatment with 2,4,6-trinitrobenzenesulphonic acid (TNBS) (15 mg/mL in 50% ethanol/50% saline). On Day 0 of the study TNBS (200 μL) is administered intra-colonically via a plastic catheter with BID dosing of the vehicle, reference or test compound continuing for 2 or 4 days. During the study, animals are weighed every day and stool observations are made and recorded as a score, based on stool consistency. At the time of sacrifice on Day 2 (or Day 4), the large intestine is removed and the length and weight recorded. Sections of the colon are taken for histopathology scoring to determine disease severity.

[11] = 5 mg/kg orally, TNBS-induced colitis, mice, 2 days
[12] = TNBS-induced colitis in mice, 5 mg/kg oral

Chain of GSK 3α (P49840 whole entry): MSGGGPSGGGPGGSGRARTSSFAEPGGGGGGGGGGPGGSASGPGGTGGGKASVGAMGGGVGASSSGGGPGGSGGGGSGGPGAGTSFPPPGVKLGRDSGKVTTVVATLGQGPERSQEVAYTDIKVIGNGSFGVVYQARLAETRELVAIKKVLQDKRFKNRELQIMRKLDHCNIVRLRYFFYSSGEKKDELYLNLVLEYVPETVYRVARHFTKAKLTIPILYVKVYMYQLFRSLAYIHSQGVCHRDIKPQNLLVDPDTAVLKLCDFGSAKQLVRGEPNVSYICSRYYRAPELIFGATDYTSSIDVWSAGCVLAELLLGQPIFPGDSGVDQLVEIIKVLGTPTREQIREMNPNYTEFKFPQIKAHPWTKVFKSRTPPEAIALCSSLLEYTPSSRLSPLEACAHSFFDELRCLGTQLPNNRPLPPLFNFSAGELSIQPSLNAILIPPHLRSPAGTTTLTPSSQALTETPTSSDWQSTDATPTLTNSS
Chain of CYP3A4 (P08684 whole entry): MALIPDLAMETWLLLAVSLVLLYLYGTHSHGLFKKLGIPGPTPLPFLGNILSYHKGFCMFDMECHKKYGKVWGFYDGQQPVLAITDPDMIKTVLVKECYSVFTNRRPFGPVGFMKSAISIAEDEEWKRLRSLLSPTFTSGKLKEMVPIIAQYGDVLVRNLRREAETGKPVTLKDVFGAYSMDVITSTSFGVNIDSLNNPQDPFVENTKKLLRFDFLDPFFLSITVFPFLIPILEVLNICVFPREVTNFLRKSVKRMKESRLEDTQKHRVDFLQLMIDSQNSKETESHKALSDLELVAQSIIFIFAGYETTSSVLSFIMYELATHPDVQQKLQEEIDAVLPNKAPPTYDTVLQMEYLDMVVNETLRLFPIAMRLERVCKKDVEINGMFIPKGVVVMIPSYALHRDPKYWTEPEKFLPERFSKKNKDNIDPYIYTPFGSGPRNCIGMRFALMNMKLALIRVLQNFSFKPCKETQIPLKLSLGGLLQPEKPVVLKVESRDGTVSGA
Chain of CYP2C9 (P11712 whole entry): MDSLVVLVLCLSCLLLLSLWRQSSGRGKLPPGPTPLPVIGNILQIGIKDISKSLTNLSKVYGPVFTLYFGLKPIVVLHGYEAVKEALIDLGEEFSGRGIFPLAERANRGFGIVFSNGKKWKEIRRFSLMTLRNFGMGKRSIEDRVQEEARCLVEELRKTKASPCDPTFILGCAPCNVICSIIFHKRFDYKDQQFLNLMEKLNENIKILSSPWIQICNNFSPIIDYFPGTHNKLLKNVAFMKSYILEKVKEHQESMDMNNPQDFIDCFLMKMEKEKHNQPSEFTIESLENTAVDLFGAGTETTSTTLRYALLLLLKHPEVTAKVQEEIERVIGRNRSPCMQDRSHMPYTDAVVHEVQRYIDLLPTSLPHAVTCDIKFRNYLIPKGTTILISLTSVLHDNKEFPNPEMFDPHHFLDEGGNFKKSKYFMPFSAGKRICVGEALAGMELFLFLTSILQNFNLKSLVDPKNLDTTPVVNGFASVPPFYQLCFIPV
Chain of c-Src (P12931 whole entry, looked up): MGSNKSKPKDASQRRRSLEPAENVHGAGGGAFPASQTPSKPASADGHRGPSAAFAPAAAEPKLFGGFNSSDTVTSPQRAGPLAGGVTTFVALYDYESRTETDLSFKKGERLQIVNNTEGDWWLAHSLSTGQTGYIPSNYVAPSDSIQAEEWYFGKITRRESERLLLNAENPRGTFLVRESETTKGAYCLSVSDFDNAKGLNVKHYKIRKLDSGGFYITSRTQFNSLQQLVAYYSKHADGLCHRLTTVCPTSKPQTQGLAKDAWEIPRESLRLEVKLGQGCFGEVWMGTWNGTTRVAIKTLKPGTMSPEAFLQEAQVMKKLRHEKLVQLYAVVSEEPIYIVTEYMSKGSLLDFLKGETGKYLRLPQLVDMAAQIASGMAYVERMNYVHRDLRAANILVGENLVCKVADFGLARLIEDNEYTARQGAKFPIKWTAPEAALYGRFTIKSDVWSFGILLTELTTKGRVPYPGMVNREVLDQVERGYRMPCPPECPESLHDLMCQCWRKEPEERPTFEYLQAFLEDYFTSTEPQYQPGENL
Chain of p38 MAPKα (MAPK14) (Q16539 whole entry): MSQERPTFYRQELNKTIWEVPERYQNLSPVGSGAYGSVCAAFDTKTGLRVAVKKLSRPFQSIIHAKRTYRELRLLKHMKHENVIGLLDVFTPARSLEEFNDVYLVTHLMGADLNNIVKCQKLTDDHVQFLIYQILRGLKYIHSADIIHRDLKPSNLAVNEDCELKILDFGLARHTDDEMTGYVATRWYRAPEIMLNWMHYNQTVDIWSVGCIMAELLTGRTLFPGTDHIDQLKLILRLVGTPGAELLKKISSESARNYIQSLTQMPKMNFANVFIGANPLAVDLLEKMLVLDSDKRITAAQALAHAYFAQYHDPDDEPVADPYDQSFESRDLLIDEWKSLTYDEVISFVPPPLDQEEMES

pIC50 [1]: 5.20
SMILES: COc1c(NC(=O)Nc2ccc(Oc3ccnc(Nc4ccccc4)c3)c3ccccc23)cc(C(C)(C)C)cc1C(=O)N[C@H]1CCOC1 [84(d), 3-[[4-[(2-Anilino-4-pyridyl)oxy]-1-naphthyl]carbamoylamino]-5-tert-butyl-2-methoxy-N-[(3S)-tetrahydrofuran-3-yl]benzamide]
pIC50 ([2]; Homo sapiens, PBMC): 7.94

decomposition under the conditions of the hydrolytic stability experiment ([3]; 1 mg/mL in DMSO and water (3:1), 60° C., 5 and 24 h): substantial decomposition
% Parent Remaining ([3]; 0 min): 100%
% Parent Remaining ([3]; 60° C., 300 min): 82%
% Parent Remaining ([3]; 60° C., 1440 min): 36%
SMILES: C#Cc1cc(Nc2nccc(Oc3ccc(NC(=O)Nc4cc(C(C)C)nn4-c4ccc(C)cc4)c4ccccc34)n2)cc(C(=O)NCCN2CCOCC2)c1 [Reference Compound B, 3-ethynyl-5-((4-((4-(3-(3-isopropyl-1-(p-tolyl)-1H-pyrazol-5-yl)ureido)naphthalen-1-yl)oxy)pyrimidin-2-yl)amino)-N-(2-morpholinoethyl)benzamide, reference compound]

pIC50 [1]: 5.60
SMILES: COCCOCCOCCOCCNC(=O)c1cc(Nc2cc(Oc3ccc(NC(=O)Nc4cc(C(C)(C)C)cc(NS(C)(=O)=O)c4OC)c4ccccc34)ccn2)cc(OC)c1 [Example 85(v), 3-[[4-[[4-[[5-tert-Butyl-3-(methanesulfonamido)-2-methoxyphenyl]-carbamoylamino]-1-naphthyl]oxy]-2-pyridyl]amino]-5-methoxy-N-[2-[2-[2-(2-methoxyethoxy)ethoxy]ethoxy]-ethyl]benzamide]
pIC50 [2]: 9.40

% Inh (inhibition at 5 μM reported instead) ([4]; CYP2C9, 0 min preincubation): 31^[†] %
% Inh (inhibition at 5 μM reported instead) ([4]; CYP2C9, 30 min preincubation): 66^[†] %
15 μM % Inh ([5]; CYP3A4, 0 min preincubation): 41%
15 μM % Inh ([5]; CYP3A4, 30 min preincubation): 92%
SMILES: C#CC(C)(C)c1cc(NC(=O)Nc2ccc(Oc3ccnc(Nc4cc(C)c5[nH]ncc5c4)n3)c3ccccc23)n(-c2ccc(C)cc2)n1 [Ref Cpd A]

pIC50 [1]: 5.54
pIC50 ([5]; CYP3A4, 0 min preincubation): < 4.82
pIC50 ([5]; CYP3A4, 30 min preincubation): < 4.82
inhibition at 15 µM ([5]; CYP3A4, 0 min preincubation): 0%
inhibition at 15 µM ([5]; CYP3A4, 30 min preincubation): 27%
pIC50 [7]: 5.93
pIC50 [8]: 7.32
pIC50 [9]: 6.57
SMILES: COc1cc(Nc2nccc(Oc3ccc(NC(=O)Nc4cc(C(C)(C)C)cc(NS(C)(=O)=O)c4OC)c4ccccc34)n2)cc(S(=O)(=O)C2CC2)c1 [Example 5]
% β-catenin induction ([6]; test compound 1 μg/mL): 10%
% β-catenin induction ([6]; test compound 5 μg/mL): 27%
% β-catenin induction ([6]; test compound 10 μg/mL): 19%

pIC50 [1]: 5.36
pIC50 [7]: 6.47
pIC50 [8]: 7.46
pIC50 [9]: 7.25
SMILES: COc1cc(Nc2cc(Oc3ccc(NC(=O)Nc4cc(C(C)(C)C)cc(NS(C)(=O)=O)c4OC)c4ccccc34)ccn2)cc(C(=O)NCCN2CCN(C)CC2)c1 [Example 79]
inflammatory cell infiltrate in the reticular and laminar propria zones [10, 11]: marked reduction
ulcer grade and epithelial repair compared to the vehicle control [10, 11]: marked improvements
LP inflammation [10, 12]: 3.5 ± 0.5
Ulcer grade [10, 12]: 3.4 ± 0.6
activity in in vivo model of colonic inflammation (histopathology analysis) ([10]; TNBS-induced colitis, mice, conducted over 2 days): substantial activity
% β-catenin induction ([6]; test compound 1 μg/mL): −4%
% β-catenin induction ([6]; test compound 5 μg/mL): 1%
% β-catenin induction ([6]; test compound 10 μg/mL): 5%
